Drawing on US20040106104A1, “Viral envelope mediated fusion assay” (priority 2002, published 2004), this text covers EC50 for one compound.

Test [1] deals with HIV NL4-3 envelope. The test is described as follows: TOPO cell mediated fusion assay, NL4-3 envelope. The class given is cell-based. Particulars: envelope NL4-3; linear envelope expression element; Hela H1 effector and target cells, luciferase; read-out: BMS-806 EC50 TOPO Cell Fusion.
Protocol: (§1) Preparation of Linear HIV Envelope Expression Element HIV viral RNA was isolated from 140 μl culture supernatant using a QIAamp Viral RNA Mini Kit (Qiagen Inc). The viral RNA was eluted in 60 μl of elution buffer. First strand cDNA was synthesized using the SuperScript First-Strand Synthesis system for RT-PCR (Invitrogen Corporation) using 8 μl of viral RNA and random hexamers according to the manufactures instructions. The HIV envelope gene was PCR amplified using 4 μl of first strand CDNA, primers BF17 5′-[sequence]-3′ and ENV-N 5′-[sequence]-3′ and a Platimun Taq DNA Polymerase High Fidelity Kit (Invitrogen) in a 100 μl reaction. The PCR product was purified using a QIAquick PCR Purification Kit (Qiagen Inc, Valencia, Calif.). In order to introduce the proper ends for the TOPO reaction 1 μl of the first PCR reaction was PCR amplified using primers:
(§2) in 100 μl as before. The PCR reaction was run on a 0.7% agarose gel and the about 3 kb HIV envelope gene was gel purified using a QIAquick Gel Extraction KIT (Qiagen Inc). The 5′ CMV promoter element and 3′ SV40 polyadenylation element were added to 700 ng of the HIV envelope PCR fragment using a TOPO Tools Kit (Invitrogen) and the final PCR product was purified as before. […]
The target of test [2] is HIV LAI envelope (Human immunodeficiency virus type 1 group M subtype B, UniProt P03377). To be noted: read-out: BMS-806 EC50 TOPO Cell Fusion, linear envelope expression element, Hela H1 effector and target cells, luciferase.
Protocol: as §1, §2
For test [3], the system named is HIV 92US072 whole virus. The test can be described thus: Whole virus assay, 92US072. The test is classed as cell-based. To be noted: 92US072, source PBMC; read-out: BMS-806 EC50 Whole Virus.
Test [4] relates to HIV BRH04821 whole virus. The test is described as follows: Whole virus assay, BRH04821. The class given is cell-based. Particulars: BRH04821, source serum; read-out: BMS-806 EC50 Whole Virus.
For test [5], the system named is HIV BRH04820 whole virus. The test can be described thus: Whole virus assay, BRH04820. The class given is cell-based. To be noted: BRH04820, source serum; read-out: BMS-806 EC50 Whole Virus.
In test [6] the test system is HIV envelope 93US157. The test can be described thus: TOPO cell mediated fusion assay, clinical envelope 93US157. The class given is cell-based. To be noted: clinical envelope 93US157, source PBMC; read-out: BMS-806 EC50 TOPO Fusion.
Protocol: (§3) The effector cells were prepared by transfecting 1.7×10^6 Hela H1 cells in a T75 flask with the linear viral envelope expression element and pTET-Off using a Lipofectamine Plus Kit (Invitrogen) as follows. 3 μg of the linear envelope expression vector and 3 μg of pTET-OFF were mixed with 750 μl of D-MEM media. 49 μl of Plus Reagent was added to the DNA mixture, the solution was mixed. After 15 minutes at room temperature a solution consisting of 750 μl D-MEM and 30 μl of lipofectamine was added to the DNA solution. The solution was mixed and incubated at room temperature for 15 minutes. The media from 1.7×10^6 Hela H1 cells ion a T75 flask was removed, the cells were washed with 15 ml of D-PBS, and 6 ml of D-MEM without serum was added to the cells. The DNA/lipofectamine solution was mixed, added to the cells and the cells were then incubated at 37° C. in the presence of 5% CO2. After 4 hours, the transfection mixture was removed and replaced with 15 ml of D-MEM 10% FBS and incubated overnight at 37° C. in the presence of 5% CO2.
(§4) Preparation of Target Cells Hela H1 cells expressing CD4, CXCR4, CCR5, and containing an integrated copy of a TRE/luciferase reporter gene were used as target cells. These cells were maintained in DMEM containing 10% FBS, 0.2 mg/ml G418, 0.4 mg/ml zeocin, 0.1 mg/ml hygromycin B, and 1.5 μg/ml puromycin. […]
Test [7] relates to HIV NL4-3 whole virus. The test can be described thus: Whole virus assay, NL4-3. The test is classed as cell-based. Particulars: read-out: BMS-806 EC50 Whole Virus.
In test [8] the test system is HIV envelope 92US072. The test can be described thus: TOPO cell mediated fusion assay, clinical envelope 92US072. The test is classed as cell-based. Particulars: clinical envelope 92US072, source PBMC; read-out: BMS-806 EC50 TOPO Fusion.
Protocol: as §3, §4
For test [9], the system named is HIV LAI whole virus. The test is described as follows: Whole virus assay, LAI. The test is classed as cell-based. Particulars: read-out: BMS-806 EC50 Whole Virus.
For test [10], the system named is HIV 93US157 whole virus. The test can be described thus: Whole virus assay, 93US157. The test is classed as cell-based. To be noted: 93US157, source PBMC; read-out: BMS-806 EC50 Whole Virus.
Test [11] relates to HIV envelope BRH04820. The test is described as follows: TOPO cell mediated fusion assay, clinical envelope BRH04820. To be noted: clinical envelope BRH04820, source serum; read-out: BMS-806 EC50 TOPO Fusion. The class given is cell-based.
Protocol: as §3, §4
For test [12], the system named is HIV envelope BRH04821. The test can be described thus: TOPO cell mediated fusion assay, clinical envelope BRH04821. The class given is cell-based. Particulars: clinical envelope BRH04821, source serum; read-out: BMS-806 EC50 TOPO Fusion.
Protocol: as §3, §4

Structures are written as SMILES.

As a reminder, the EC50 is the concentration needed to bring the measured effect to its halfway point. With `COc1ccnc2[nH]cc(C(=O)C(=O)N3CCN(C(=O)c4ccccc4)C[C@H]3C)c12` [BMS-806], the EC50 in test [1] amounted to 5.7 nM; in test [2], 3.5 nM; in [3] it was 336 nM; in test [4], 5.3 nM; in test [5], 5.5 nM; in test [6] it was 2.3 nM. Moreover, the EC50 is 2.1 nM in test [7]; 818 nM in test [8]; 2.5 nM in test [9]; 3.9 nM in test [10]; 5.5 nM in test [11]; 2.7 nM in [12].
